From patent US10144742B2 (Millennium Pharmaceuticals, Inc., priority 2014, dated 2018)
Read-outs that look alike come from different tables or passages of the source.

How the values were obtained:
hNAMPT protein = hNAMPT protein (Homo sapiens (Human), UniProt P43490); test: NAMPT enzyme assay (TR-FRET/HTRF, BodiPY ligand, anti 6His-Tb); type: binding; details: for IC50: NAMPT IC50 range class, read-out: IC50; for inhibition at 1 µM: read-out: Percent Inhibition
Source text: As discussed above, the invention provides compounds that are useful as inhibitors of the enzyme NAMPT. The NAMPT inhibition of a compound of the invention can be measured using a variety of methods known in the art. For example, the ability of a compound of the invention to inhibit NAMPT enzyme activity can be measured using a homogeneous time resolved fluorescence (HTRF) assay using hNAMPT protein and anti 6His-Tb in buffer treated with a compound of the invention (or control e.g., DMSO) and BodiPY ligand. The TR-FRET signal can be measured using a high throughput microplate reader (e.g., Pherastar). Excitation can be carried out at 320 nm. The percent inhibition value at a single concentration of compound of the invention can be calculated relative to a control treated sample. A concentration response curve can be generated for each compound of the invention and the curve fitted to generate an IC50 value. […] Cat. No. […] To this solution is added test compounds or vehicle control (DMSO) and BodiPY ligand (structure below). The plate is shaken for 1-2 min, sealed and incubated for 1 hour at rt in the dark. The TR-FRET signal is measured using BMG Pherastar (Lanthascreen protocol on BMG Pherastar). Excitation was carried out at 320 nm, and the ratio of emission of BodiPY (520 nm) to terbium (486 nm) was determined. Concentration response curves are generated by calculating the excitation increase in test compound-treated samples relative to DMSO-treated controls. For the assay method described above, test compound percent inhibition values at a single concentration are calculated relative to control (DMSO) treated samples. Compound concentration response curves are fitted to generate IC50 values from those curves. One skilled in the art will appreciate that these values generated either as percentage inhibition at a single concentration or IC50 values are subject to experimental variation.

PC3 cells = test: PC3 growth inhibition (Cell-titer glo, 72 hours); type: cell-based; details: Homo sapiens, PC-3, PC3 cells, 72 hours, Cell-titer glo, read-out: Percent Inhibition (PC3 growth inhibition); for inhibition at 1 µM: compound concentration 1 μM; for inhibition at 1.667 µM: compound concentration 1.667 μM
Protocol: The ability of a compound of the invention to inhibit the growth of cells can be measured using a variety of methods known in the art. For example, the ability of a compound of the invention to inhibit the growth of PC3 cells can be measured. PC3 cells can be plated and incubated overnight under CO2. For each measurement, a compound of the invention (or vehicle e.g., DMSO) can be diluted with AIM serum free medium and added to the cell plate. The cell plate can then be incubated for 72 h under CO2. Cell-titer glo solution can be added and the plates can be incubated protected from light and the amount of luminescences can be measured. Concentration response curves can be generated by calculating the luminescence increase in test compound treated samples relative to DMSO-treated controls. Percentage remaining viability values at a single concentration can be measured. Growth inhibition (GI50) or cell viability (LD50) values can be determined from those curves.
Compounds of the invention were assayed to measure PC3 growth inhibition at a concentration of 1 μM or 1.667 μM (Table 3). To measure PC3 growth inhibition, PC3 cells that were maintained in PRMI1640 growth medium (Life Technologies; Cat. No. 11875) at 37° C. under 5% CO2 are trypsinized and diluted at a density of 8×10^4 cells/ml, 25 ul per well of cells and plated in 384-well black tissue culture plate. The cells are incubated overnight at 37° C. under 5% CO2. For each measurement, a test compounds or vehicle control (DMSO) are diluted with AIM serum free medium and added to the cell plate. Incubate for 72 hours at 37° C. under 5% CO2. 25 μl Cell-titer glo solution (Promega; Cat. No. G8462) is added and the cell plates are incubated for 10 minutes protected from light. The luminescence is measured. Concentration response curves are generated by calculating the luminescence increase in test compound-treated samples relative to DMSO-treated controls. Percentage remaining viability values at a single concentration, growth inhibition (GI50) or cell viability (LD50) values are determined from those curves. One skilled in the art will appreciate that these values are subject to experimental variation.

hNAMPT protein, sequence (P43490 whole entry): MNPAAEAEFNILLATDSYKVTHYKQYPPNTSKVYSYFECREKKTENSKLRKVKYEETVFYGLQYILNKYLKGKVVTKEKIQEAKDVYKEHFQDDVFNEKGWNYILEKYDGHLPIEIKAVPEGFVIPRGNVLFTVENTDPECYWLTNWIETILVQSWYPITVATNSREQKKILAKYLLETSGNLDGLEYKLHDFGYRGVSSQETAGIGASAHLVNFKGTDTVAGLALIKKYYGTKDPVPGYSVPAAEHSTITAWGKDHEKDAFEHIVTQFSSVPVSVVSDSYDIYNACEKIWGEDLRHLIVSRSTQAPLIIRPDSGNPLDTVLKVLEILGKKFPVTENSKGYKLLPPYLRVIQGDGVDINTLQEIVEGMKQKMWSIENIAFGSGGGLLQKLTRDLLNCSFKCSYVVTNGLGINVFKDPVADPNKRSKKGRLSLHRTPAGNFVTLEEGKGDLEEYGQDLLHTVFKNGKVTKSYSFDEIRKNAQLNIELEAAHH

| Structure (SMILES) | IC50 (hNAMPT protein) [µM] | inhibition at 1 µM (hNAMPT protein; compound concentration 1 μM) [%] | inhibition at 1 µM (PC3 cells) [%] | inhibition at 1.667 µM (PC3 cells) [%] | inhibition at 1.852 µM (PC3 cells; compound concentration 1.852 μM) [%] | inhibition at 1 µM (hNAMPT protein) [%] |
| --- | --- | --- | --- | --- | --- | --- |
| O=C(NCCCc1cccnc1)c1ccc2nc(-c3ccc(F)cc3)c(-c3ccc(F)cc3)nc2c1 [Compound I-32, 2,3-bis(4-fluorophenyl)-N-[3-(pyridin-3-yl)propyl]quinoxaline-6-carboxamide] | 0.1 to 0.5 | 78 | -5 | – | – | – |
| Cn1cnc2c1CN(C(=O)c1ccc3nc(-c4ccc(F)cc4)c(-c4ccc(F)cc4)nc3c1)CC2 [Compound I-33, [2,3-bis(4-fluorophenyl)quinoxalin-6-yl](3-methyl-3,4,6,7-tetrahydro-5H-imidazo[4,5-c]pyridin-5-yl)methanone] | 2 to 10 | 20 | 92 | – | – | – |
| C[C@@H]1CN(c2nc3cc(C(=O)NCCCn4ccnc4)ccc3nc2-c2ccccc2)C[C@H](C)O1 [Compound I-34, cis-3-[(2R,6S)-2,6-dimethylmorpholin-4-yl]-N-[3-(1H-imidazol-1-yl)propyl]-2-phenylquinoxaline-6-carboxamide] | 1 to 2 | 47 | -6 | – | – | – |
| O=C(NCCCc1c[nH]cn1)c1ccc2nc(N3CCOCC3)c(-c3ccc(F)cc3)nc2c1 [Compound I-35, 3-(4-fluorophenyl)-N-[3-(1H-imidazol-4-yl)propyl]-2-(morpholin-4-yl)quinoxaline-6-carboxamide] | < 0.1 | 90 | – | 2 | – | – |
| COc1ccccc1-c1nc2cc(C(=O)NCCCn3ccnc3)ccc2nc1-c1ccccc1 [Compound I-36, N-[3-(1H-imidazol-1-yl)propyl]-3-(2-methoxyphenyl)-2-phenylquinoxaline-6-carboxamide] | 0.1 to 0.5 | 51 | 1 | – | – | – |
| O=C(NCCCn1ccnc1)c1ccc2nc(N3CC4CC3CO4)c(-c3ccccc3)nc2c1 (stereo not drawn) [Compound I-37, N-[3-(1H-imidazol-1-yl)propyl]-2-(2-oxa-5-azabicyclo[2.2.1]hept-5-yl)-3-phenylquinoxaline-6-carboxamide] | 0.5 to 1 | 65 | -6 | – | – | – |
| Cn1cnc2cc(-c3nc4ccc(C(=O)NCCCn5ccnc5)cc4nc3-c3ccccc3)ccc21 [Compound I-38, N-[3-(1H-imidazol-1-yl)propyl]-2-(1-methyl-1H-benzimidazol-5-yl)-3-phenylquinoxaline-6-carboxamide] | < 0.1 | 94 | -8 | – | – | – |
| O=C(NCCCc1ncc[nH]1)c1ccc2nc(N3CCOCC3)c(-c3ccc(F)cc3)nc2c1 [Compound I-39, 3-(4-fluorophenyl)-N-[3-(1H-imidazol-2-yl)propyl]-2-(morpholin-4-yl)quinoxaline-6-carboxamide] | < 0.1 | 97 | – | 2 | – | – |
| O=C(NCCCn1ccnc1)c1ccc2nc(-c3ccccc3)c(-c3cncnc3)nc2c1 [Compound I-41, N-[3-(1H-imidazol-1-yl)propyl]-2-phenyl-3-(pyrimidin-5-yl)quinoxaline-6-carboxamide] | 2 to 10 | 17 | 5 | – | – | – |
| O=C(NCCCc1nccs1)c1ccc2nc(N3CCC(N4CCOCC4)CC3)c(-c3ccc(F)cc3)nc2c1 [Compound I-42, 3-(4-fluorophenyl)-2-[4-(morpholin-4-yl)piperidin-1-yl]-N-[3-(1,3-thiazol-2-yl)propyl]quinoxaline-6-carboxamide] | < 0.1 | 96 | – | > 99 | – | – |
| O=C(NCCc1ccc2[nH]cnc2c1)c1ccc2nc(-c3ccc(F)cc3)c(-c3ccc(F)cc3)nc2c1 [Compound I-43, N-[2-(1H-benzimidazol-5-yl)ethyl]-2,3-bis(4-fluorophenyl)quinoxaline-6-carboxamide] | 2 to 10 | 23 | 16 | – | – | – |
| O=C(NCCCc1ncc[nH]1)c1ccc2nc(N3CCC(N4CCOCC4)CC3)c(-c3cccs3)nc2c1 [Compound I-44, N-[3-(1H-imidazol-2-yl)propyl]-2-[4-(morpholin-4-yl)piperidin-1-yl]-3-(2-thienyl)quinoxaline-6-carboxamide] | < 0.1 | > 99 | – | 33 | – | – |
| O=C(NCCCn1ccnc1)c1ccc2nc(-c3ccc(Cl)cc3)c(-c3ccccc3)nc2c1 [Compound I-45, 2-(4-chlorophenyl)-N-[3-(1H-imidazol-1-yl)propyl]-3-phenylquinoxaline-6-carboxamide] | 0.1 to 0.5 | 50 | -6 | – | – | – |
| COc1cccc(-c2nc3cc(C(=O)NCCCc4cccnc4)ccc3nc2N2CCC(O)CC2)c1 [Compound I-46, 2-(4-hydroxypiperidin-1-yl)-3-(3-methoxyphenyl)-N-[3-(pyridin-3-yl)propyl]quinoxaline-6-carboxamide] | < 0.1 | 98 | – | – | 2 | – |
| O=C(NCCCc1ccnnc1)c1ccc2nc(N3CCOCC3)c(-c3ccc(F)cc3)nc2c1 [Compound I-47, 3-(4-Fluorophenyl)-2-(morpholin-4-yl)-N-[3-(pyridazin-4-yl)propyl]quinoxaline-6-carboxamide] | < 0.1 | – | – | 33 | – | 90 |
| CS(=O)(=O)Nc1cccc(-c2nc3cc(C(=O)NCCCn4ccnc4)ccc3nc2-c2ccccc2)c1 [Compound I-48, N-[3-(1H-imidazol-1-yl)propyl]-3-{3-[(methylsulfonyl)amino]phenyl}-2-phenylquinoxaline-6-carboxamide] | 0.1 to 0.5 | 87 | 1 | – | – | – |
| O=C(NCCCn1ccnc1)c1ccc2nc(-c3cn[nH]c3)c(-c3ccccc3)nc2c1 [Compound I-49, N-[3-(1H-imidazol-1-yl)propyl]-3-phenyl-2-(1H-pyrazol-4-yl)quinoxaline-6-carboxamide] | 0.5 to 1 | 56 | 8 | – | – | – |
| O=C(NCCCc1ncc[nH]1)c1ccc2nc(Cl)c(-c3ccc(Cl)cc3)nc2c1 [Compound I-50, 2-chloro-3-(4-chlorophenyl)-N-[3-(1H-imidazol-2-yl)propyl]quinoxaline-6-carboxamide] | < 0.1 | 87 | – | 96 | – | – |
| CC(=O)N1CCN(c2nc3ccc(C(=O)NCCCn4ccnc4)cc3nc2-c2ccccc2)CC1 [Compound I-51, 2-(4-acetylpiperazin-1-yl)-N-[3-(1H-imidazol-1-yl)propyl]-3-phenylquinoxaline-6-carboxamide] | 0.1 to 0.5 | 81 | -7 | – | – | – |
| COc1cccc(-c2nc3ccc(C(=O)NCCCn4ccnc4)cc3nc2-c2cccc(OC)c2)c1 [Compound I-52, N-[3-(1H-imidazol-1-yl)propyl]-2,3-bis(3-methoxyphenyl)quinoxaline-6-carboxamide] | < 0.1 | 103 | 0 | – | – | – |
| Cn1cncc1CCNC(=O)c1ccc2nc(-c3ccc(F)cc3)c(-c3ccc(F)cc3)nc2c1 [Compound I-53, 2,3-bis(4-fluorophenyl)-N-[2-(1-methyl-1H-imidazol-5-yl)ethyl]quinoxaline-6-carboxamide] | 0.1 to 0.5 | 77 | -6 | – | – | – |
